Assay [1] relates to AURKA. Also on record: method as in PMID 32338514, PMID 27905678, PMID 27437075, PMID 30232224, PMID 27699881. The following applies: literature values, introduction and Figure 1; cited from earlier work.
In assay [2] the test system is AURKB. On the set-up: method as in PMID 32338514, PMID 27905678, PMID 27437075, PMID 30232224, PMID 27699881. The following applies: literature values, introduction and Figure 1; cited from earlier work.
For a further assay, the system named is human TTK. Also on record: method as in PMID 23940287, PMID 32338514, PMID 27905678, PMID 27437075, PMID 30232224. The following applies: literature values, introduction and Figure 1; cited from earlier work.
Assay [3] has as its target T1, AURKB (MV4-11^AURKB-HiBiT cells) (Homo sapiens, UniProt Q96GD4).
T1 construct: expressed in transfected cells; host or cells: MV4-11, lentiviral transduction (pRRL-PGK vector)
Briefly: HiBiT assay, AURKB degradation. It is filed as cell-based. As to conditions: 6 h treatment; for DC50: read-out: DC50 (half-maximal degradation concentration) AURKB; for Dmax: read-out: Dmax (maximal degradation) AURKB. Summed up: (§1)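 MV4-11 lines stably expressing HiBiT-tagged AURKA, AURKB or TTK (lentiviral) were treated with serial compound dilutions for the indicated times. Remaining tagged protein was read by lytic HiBiT luminescence, and DC50 was fitted with a four-parameter dose–response equation using concentrations showing sigmoidal behaviour.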

The target of assay [4] is T2, AURKA (MV4-11^AURKA-HiBiT cells) (Homo sapiens, UniProt O14965).
T2 construct: expressed in transfected cells; host or cells: MV4-11, lentiviral transduction
T2 sequence (O14965 1-403): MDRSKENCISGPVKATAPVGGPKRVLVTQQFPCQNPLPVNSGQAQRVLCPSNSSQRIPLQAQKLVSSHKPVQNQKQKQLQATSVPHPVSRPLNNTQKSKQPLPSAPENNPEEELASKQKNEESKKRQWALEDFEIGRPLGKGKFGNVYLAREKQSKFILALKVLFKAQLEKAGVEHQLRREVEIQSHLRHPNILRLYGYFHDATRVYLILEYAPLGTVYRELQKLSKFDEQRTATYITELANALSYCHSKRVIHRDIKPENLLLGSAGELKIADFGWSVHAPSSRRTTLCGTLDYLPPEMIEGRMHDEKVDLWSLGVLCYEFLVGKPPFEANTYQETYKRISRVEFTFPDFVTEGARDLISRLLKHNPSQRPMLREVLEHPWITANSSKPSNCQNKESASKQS
Briefly: HiBiT assay, AURKA degradation. Format: cell-based. As to conditions: 6 h treatment, MV4-11^AURKA-HiBiT cells; for DC50: read-out: DC50 (half-maximal degradation concentration) AURKA; for Dmax: read-out: Dmax (maximal degradation) AURKA. Summed up:
as §1
In general terms: HiBiT is a short tag that completes a luciferase, so light tracks the accessible tagged protein.

Assay [5] concerns the target T3, TTK (MV4-11^HiBiT-TTK cells) (Homo sapiens, UniProt P33981).
T3 construct: expressed in transfected cells; host or cells: MV4-11, lentiviral transduction (pRRL-PGK-HiBiT entry vector)
T3 sequence (P33981 1-857): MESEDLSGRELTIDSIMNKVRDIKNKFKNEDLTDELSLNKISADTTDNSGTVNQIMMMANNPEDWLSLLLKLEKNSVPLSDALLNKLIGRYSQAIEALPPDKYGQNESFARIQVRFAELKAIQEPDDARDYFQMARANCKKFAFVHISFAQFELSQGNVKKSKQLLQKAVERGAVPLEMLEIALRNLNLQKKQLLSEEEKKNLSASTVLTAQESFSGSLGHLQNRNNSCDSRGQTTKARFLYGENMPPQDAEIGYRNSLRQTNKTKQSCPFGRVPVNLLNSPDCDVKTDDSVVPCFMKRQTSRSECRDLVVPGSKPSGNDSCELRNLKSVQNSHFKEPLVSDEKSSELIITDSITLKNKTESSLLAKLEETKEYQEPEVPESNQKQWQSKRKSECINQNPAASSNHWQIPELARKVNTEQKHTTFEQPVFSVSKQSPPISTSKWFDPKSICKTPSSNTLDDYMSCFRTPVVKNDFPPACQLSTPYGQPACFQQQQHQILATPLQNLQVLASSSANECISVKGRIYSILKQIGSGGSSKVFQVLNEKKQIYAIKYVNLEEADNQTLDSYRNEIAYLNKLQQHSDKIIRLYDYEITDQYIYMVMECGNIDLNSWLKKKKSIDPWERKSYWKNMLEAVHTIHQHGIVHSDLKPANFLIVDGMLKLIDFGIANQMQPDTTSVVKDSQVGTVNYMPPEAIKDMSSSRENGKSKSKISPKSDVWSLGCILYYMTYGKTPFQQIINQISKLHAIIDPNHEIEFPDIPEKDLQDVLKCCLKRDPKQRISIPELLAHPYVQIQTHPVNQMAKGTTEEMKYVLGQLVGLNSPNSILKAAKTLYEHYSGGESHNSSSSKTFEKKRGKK
The experiment in a line: HiBiT assay, TTK degradation. As to conditions: 6 h treatment, MV4-11^HiBiT-TTK cells; for DC50: read-out: DC50 (half-maximal degradation concentration) TTK; for Dmax: read-out: Dmax (maximal degradation) TTK. On the set-up: key to Dmax (maximal degradation) TTK: compounds with degradation less than 15% reported as “inactive”. Format: cell-based. Summed up:
as §1

The test system of another assay is MV4-11 cells (naive). The experiment in a line: alamarBlue cell viability assay. The following applies: 72 h treatment, MV4-11 cells (naive); for EC50: read-out: EC50 (concentration that decreases cell viability by 50%). It is filed as cell-based, human. In outline: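 Cells exposed to compound concentration series or vehicle for 72 h (unless otherwise stated); alamarBlue added a few hours before end point. Read-out by fluorescence (ex 550/em 600 nm) or absorbance (570 nm, 600 nm reference).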

Assay [6] has as its target T4, AURKB (Homo sapiens, UniProt Q96GD4).
T4 construct: endogenous in cells; host or cells: naive MV4-11
The experiment in a line: Immunoblot of AURKB in naive MV4-11 cells. It is filed as cell-based. As to conditions: 6 h, 0.1 µM. How it is done: The cells were treated with compounds or vehicle for indicated time points and lysed in RIPA lysis buffer (50 mM HEPES pH 7.9, 140 mM NaCl, 1 mM EDTA, 1% Triton X-100, 0.1% SDS, 0.1% sodium deoxycholate) containing protease and phosphatase inhibitors (Sigma) for 20 min at 4 °C. Cell lysates were cleared by centrifugation, and protein concentration was determined with bicinchoninic acid assay. Equal amounts of protein per sample were separated by Bis-Tris-PAGE and transferred to PVDF membranes (Millipore). The membranes were blocked with 5% (w/v) nonfat dry milk in TBS-T [20 mM Tris–HCl, pH 7.5, 150 mM NaCl, 0.1% (v/v) Tween-20] for 1 h at room temperature and incubated with primary antibody at 4 °C overnight. Visualization was carried out using horseradish peroxidase (HRP)-labeled secondary antibodies and detected using a chemiluminescent HRP substrate (Millipore) in LAS3000 or LAS4000 mini (Fujifilm). Vinculin, GAPDH, or B-actin were used as a loading control. The loading control was probed along with the target antibody by cutting the membrane. For targets with similar molecular weights, the samples were run in duplicate and probed with their respective loading controls, although only one control was shown in the figure for all targets. The signal was quantified using ImageJ or Image Studio Lite against the corresponding loading controls. Antibodies used in this study were as follows: Aurora A/AIK (Cell Signaling Technology, 3092), Aurora B (Bethyl Laboratories, A300–431A), TTK (Santa Cruz Biotechnology, sc-56968), GAPDH (Cell Signaling Technology, 2118), B-Actin (Sigma, A5441), and Vinculin (Sigma, V9131).
α GAPDH α Vinculin α B-Actin
Figure S2: Cellular degradation studies of SF1-based compounds. […]
Immunoblots of TTK and AURKB. Naive MV4-11 cells were treated with indicated concentration of 44 or 47 G)
(E), 18 (F), and 14 or 20 (G) for 6 h and compared with vehicle treated cells. […]
All HiBiT data are represented as a mean ±s.d. from n=2 replicates. […]
A general note: Immunoblotting shows a protein as a band on a membrane.

Assay [7] has as its system AURKA. As to conditions: reported PROTACs; cited from earlier work.
The test system of another assay is TTK. On the set-up: method as in PMID 35084180. As to conditions: reported PROTAC; cited from earlier work.

Results on 12 compounds are retold here after article PMC11555526, “Development of 2-Aminoadenine-Based Proteolysis-Targeting Chimeras (PROTACs) as Novel Potent Degraders of Monopolar Spindle 1 and Aurora Kinases” (ACS Pharmacology & Translational Science, 2024).

Like-named read-outs stand apart in the source and are kept apart here.

What is called IC50 is the concentration at which inhibition is half-maximal. For orientation: Dmax means the largest share of the target that was removed.

T1 sequence (Q96GD4 1-345 isoform Q96GD4-5): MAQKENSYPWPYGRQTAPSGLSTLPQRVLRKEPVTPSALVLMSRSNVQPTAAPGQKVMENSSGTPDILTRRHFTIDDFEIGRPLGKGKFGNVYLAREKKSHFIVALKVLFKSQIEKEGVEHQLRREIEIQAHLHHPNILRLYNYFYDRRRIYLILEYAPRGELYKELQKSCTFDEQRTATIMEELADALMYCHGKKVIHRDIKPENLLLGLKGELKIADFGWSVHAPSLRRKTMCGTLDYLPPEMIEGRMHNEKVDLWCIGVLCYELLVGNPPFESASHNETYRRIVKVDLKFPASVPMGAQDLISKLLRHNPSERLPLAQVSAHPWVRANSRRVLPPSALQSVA
T4 sequence (Q96GD4 whole entry): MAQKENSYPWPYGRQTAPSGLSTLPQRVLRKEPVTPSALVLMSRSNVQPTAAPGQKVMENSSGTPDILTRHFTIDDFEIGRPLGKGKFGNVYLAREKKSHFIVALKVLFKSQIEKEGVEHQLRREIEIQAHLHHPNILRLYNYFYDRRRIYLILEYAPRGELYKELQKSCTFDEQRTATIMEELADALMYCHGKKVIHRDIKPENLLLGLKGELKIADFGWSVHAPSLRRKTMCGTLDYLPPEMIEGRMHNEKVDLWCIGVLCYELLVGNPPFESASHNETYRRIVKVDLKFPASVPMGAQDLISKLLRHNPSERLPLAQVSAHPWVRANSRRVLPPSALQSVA

In the case of `O=C(Nc1c[nH]nc1-c1nc2ccc(CN3CCOCC3)cc2[nH]1)NC1CC1` [AT9283], the IC50 in the assay with AURKA [1] and in the assay with AURKB [2] was 3 nM throughout.

Turning to `COc1cc(S(C)(=O)=O)ccc1Nc1nc2ccc(-c3ccc(NC(=O)[C@H](C)c4ccc(F)cc4)cc3)cn2n1` [BAY1161909], the IC50 in the assay on human TTK was 1 nM.

`Cc1cc(-c2cnn3c(NC[C@H]4C[C@@](C)(O)C4)cc(Oc4cccnc4)nc23)ccc1C(=O)NC1CC1` [CFI-402257]: the IC50 with human TTK was 1 nM.

Consider `Cc1ncsc1-c1ccc(CNC(=O)[C@@H]2C[C@@H](O)CN2C(=O)[C@@H](NC(=O)CCC(=O)NCC(=O)N2CCN(c3ccc(Nc4nc(Nc5ccccc5S(=O)(=O)C(C)C)c5nc[nH]c5n4)cc3)CC2)C(C)(C)C)cc1` [Compound 47], for which, in [3], the “DC50 (half-maximal degradation concentration) AURKB” value was “– (compounds with degradation less than 25% were not calculated and reported as “–”)”; the “Dmax (maximal degradation) AURKB” value stood at 20.20%. In assay [4], the “DC50 (half-maximal degradation concentration) AURKA” value was “– (compounds with degradation less than 25% were not calculated and reported as “–”)”; the “Dmax (maximal degradation) AURKA” value is 21.70%. In assay [5], the “DC50 (half-maximal degradation concentration) TTK” value was “– (compounds with degradation less than 25% were not calculated and reported as “–”)”; the “Dmax (maximal degradation) TTK” value was “inactive”. In the assay on MV4-11 cells (naive), the “EC50 (concentration that decreases cell viability by 50%)” value was “— (compounds with decrease of cell viability less than 50% were not calculated and reported as “—”)”. Also, the “relative AURKB level (immunoblot quantification, vehicle = 1.00)” value on AURKB [6] is given as 1.00.

Regarding `Cc1ncsc1-c1ccc(CNC(=O)[C@@H]2C[C@@H](O)CN2C(=O)[C@@H](NC(=O)CCC(=O)NCCCNC(=O)CCC(=O)N2CCN(c3ccc(Nc4nc(NC5CCCCC5)c5nc[nH]c5n4)cc3)CC2)C(C)(C)C)cc1` [Compound 56], in assay [3], the “Dmax (maximal degradation) AURKB” value worked out at 29.10% and the DC50 was 2560 nM. Further, in assay [4], the “Dmax (maximal degradation) AURKA” value was determined as 39.50% and the DC50 worked out at 6500 nM. Also, in assay [5], the “Dmax (maximal degradation) TTK” value was 34.20% and the DC50 was determined as 1890 nM. In addition, in the assay with MV4-11 cells (naive), the EC50 was determined as 6820 nM.

As to `COc1cc(Nc2ncc3c(n2)-c2ccc(Cl)cc2C(c2c(F)cccc2OC)=NC3)ccc1C(=O)NCCOCCOCCNC(=O)COc1cccc2c1C(=O)N(C1CCC(=O)NC1=O)C2=O` (stereo not drawn) [JB170], the DC50 with AURKA [7] is 28 nM.

Regarding `O=C(COc1cccc2c1C(=O)N(C1CCC(=O)NC1=O)C2=O)NCCOCCOCCNC(=O)C1(Cc2cccc(Nc3nccs3)n2)CCC(Oc2cccc(Cl)c2F)CC1` (stereo not drawn) [JB300], the DC50 with AURKA [7] was 30 nM.

As for `CCC(=O)N[C@H]1CC[C@@H](n2c(=O)cc(C)c3cnc(Nc4ccc(N5CCN(C(=O)CCCC#Cc6ccc7c(c6)CN(C6CCC(=O)NC6=O)C7=O)CC5)cc4OC)nc32)CC1` (stereo partly drawn) [LJB-1113157], the DC50 in the assay with TTK was 3.1 nM.

In the case of `COc1cc(N2CCC(O)CC2)ccc1Nc1nc(Nc2ccccc2S(=O)(=O)C(C)C)c2nc[nH]c2n1` [MPS1-IN-3, reference compound], in assay [3], the DC50 was 3210 nM and the Dmax was 43.3%. Moreover, in assay [4], the DC50 was 998 nM and the Dmax is 41.7%. Further, in [5], the “DC50 (half-maximal degradation concentration) TTK” value is “– (compounds with degradation less than 25% were not calculated and reported as “–”)”; the “Dmax (maximal degradation) TTK” value was “inactive”. Besides, the EC50 in the assay on MV4-11 cells (naive) (Homo sapiens) turned out to be 1270 nM. Besides, the IC50 with human TTK is 50 nM.

In the case of `CC(C)S(=O)(=O)c1ccccc1Nc1nc(Nc2ccc(N3CCNCC3)cc2)nc2[nH]cnc12` [SF1], the DC50 in [3] came to 993 nM; in assay [4], 274 nM; in assay [5], 1270 nM. Further, the Dmax in assay [3] was found to be 70.2%; in assay [4], 61.9%; in [5] it was 88.8%. In addition, the EC50 in the assay on MV4-11 cells (naive) (Homo sapiens) was 28 nM.

On to `COc1cc(N2CCNCC2)ccc1Nc1nc(Nc2ccccc2S(=O)(=O)C(C)C)c2nc[nH]c2n1` [SF2], for which the DC50 in [3] turned out to be 4860 nM; in assay [4], 1930 nM; in assay [5], 1750 nM. Further, the Dmax amounted to 40.9% in assay [3], 40.1% in assay [4] and 29.6% in [5]. Besides, the EC50 in the assay on MV4-11 cells (naive) (Homo sapiens) is 2060 nM.

For `c1nc2c(NC3CCCCC3)nc(Nc3ccc(N4CCNCC4)cc3)nc2[nH]1` [azareversine, reference compound], the DC50 in assay [3] amounted to 79.3 nM; in assay [4], 99.5 nM; in [5] it was 118 nM. In addition, the figures for the Dmax in assay [3], in assay [4] and in assay [5] were 44.5%, 52.6% and 47.7%, respectively. In the assay on MV4-11 cells (naive) (Homo sapiens), the EC50 amounted to 123 nM.
